Assay results: ChEMBL document CHEMBL1201862, “PubChem BioAssay data set” (2004)
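How tested: cells in 96-well plates exposed to compound for 48 hours at five concentrations. At the GI50, growth is halved.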 The source made the active and inactive calls. Rule as the data show it: active = GI50 up to about 1.1 µM and inactive = higher.

Experiments:
Test in all cases: NCI-60 cell line screen, 48 h
XF498 = tested on: XF498
SK-OV-3 = tested on: SK-OV-3
BT-549 = tested on: BT-549
A498 = tested on: A498
OVCAR-4 = tested on: OVCAR-4
IGROV-1 = tested on: IGROV-1
LOX IMVI = tested on: LOX IMVI
HOP-62 = tested on: HOP-62
MDA-MB-231 = tested on: MDA-MB-231
OVCAR-3 = tested on: OVCAR-3
RXF 393 = tested on: RXF 393
SR = tested on: SR
HOP-92 = tested on: HOP-92
HCC 2998 = tested on: HCC 2998
PC-3 = tested on: PC-3
CCRF-CEM = tested on: CCRF-CEM
HCT-15 = tested on: HCT-15
786-0 = tested on: 786-0
COLO 205 = tested on: COLO 205
MDA-N = tested on: MDA-N

Row | SMILES | GI50 (XF498) | GI50 (SK-OV-3) | GI50 (BT-549) | GI50 (A498) | GI50 (OVCAR-4) | GI50 (IGROV-1) | GI50 (LOX IMVI) | GI50 (HOP-62) | GI50 (MDA-MB-231) | GI50 (OVCAR-3) | GI50 (RXF 393) | GI50 (SR) | GI50 (HOP-92) | GI50 (HCC 2998) | GI50 (PC-3) | GI50 (CCRF-CEM) | GI50 (HCT-15) [µM] | GI50 (786-0) | GI50 (COLO 205) | GI50 (MDA-N)
1 | COC1/C=C\C=C(/C)C(=O)NC2=CC(=O)C(NCCCl)=C(CC(C)CC(OC)C(O)C(C)/C=C(/C)C1OC(N)=O)C2=O (configuration not stated) | 0.659 µM (active) | 0.117 µM (active) | 1.25 µM (inactive) | 0.873 µM (active) | 2.54 µM (inactive) | 0.499 µM (active) | 0.0857 µM (active) | 0.339 µM (active) | 2 µM (inactive) | 0.0853 µM (active) | 0.0174 µM (active) | 0.0341 µM (active) | 0.384 µM (active) | 0.101 µM (active) | 0.656 µM (active) | 0.0993 µM (active) | 0.301 | 0.323 µM (active) | < 0.0126 µM (active) | 0.332 µM (active)
2 | C=C1C(=O)O[C@H](c2ccoc2)C[C@@H]1[C@@]1(C)CCCC2(C)C(=O)OCC21 (some centres not stated) | > 100 µM (inactive) | > 100 µM (inactive) |  | > 100 µM (inactive) | > 100 µM (inactive) | > 100 µM (inactive) | > 100 µM (inactive) | > 100 µM (inactive) |  | > 100 µM (inactive) | > 100 µM (inactive) |  |  | > 100 µM (inactive) |  | > 100 µM (inactive) | > 100 | > 100 µM (inactive) | > 100 µM (inactive) | 
3 | COC(=O)C12OCC34C(CC5C(C)=CC(=O)C(O)C5(C)C3C(O)C1O)OC(=O)C(OC(=O)CC(C)C)C24 (configuration not stated) | 0.00116 µM (active) | 0.0031 µM (active) | 0.000463 µM (active) | 0.002 µM (active) |  | 0.000564 µM (active) | 0.000548 µM (active) | 0.00222 µM (active) | 0.00369 µM (active) | 0.000906 µM (active) | 0.00168 µM (active) | 0.000327 µM (active) | 0.00324 µM (active) | 0.000803 µM (active) | 0.000871 µM (active) | 0.000486 µM (active) | 0.00288 | 0.0468 µM (active) | 0.00237 µM (active) | 0.00142 µM (active)
4 | O=C(Nc1ccc(Cl)cc1Cl)OC(Cn1cncn1)c1ccc(Cl)cc1Cl (configuration not stated) | 14.7 µM (inactive) | 18.3 µM (inactive) |  | 20 µM (inactive) | 14.4 µM (inactive) | 16.9 µM (inactive) | 16.3 µM (inactive) | 19.5 µM (inactive) |  | 15.8 µM (inactive) | 16.9 µM (inactive) | 41.3 µM (inactive) |  |  |  | 38.9 µM (inactive) | 16.6 | 19 µM (inactive) | 17.2 µM (inactive) | 
5 | CC#CC#C/C=C1/O[C@]2(CCC(OC(C)=O)CO2)[C@@H]2O[C@H]12 (some centres not stated) |  | 51.9 µM (inactive) | 21.1 µM (inactive) | 22.2 µM (inactive) | 27.9 µM (inactive) | 50.7 µM (inactive) | 15.1 µM (inactive) | 37.2 µM (inactive) | 23 µM (inactive) | 29.4 µM (inactive) | 18.5 µM (inactive) | 25.9 µM (inactive) | 28.1 µM (inactive) | 18.5 µM (inactive) | 22.1 µM (inactive) | 14.7 µM (inactive) | 16.6 | 18.2 µM (inactive) | 15.1 µM (inactive) | 28.2 µM (inactive)
6 | COc1cc(C2C(Cl)C(=O)N2NC(=O)c2ccc(N)cc2)cc(Br)c1O (configuration not stated) | 17 µM (inactive) | 28.5 µM (inactive) |  | 37.2 µM (inactive) | 14.8 µM (inactive) | 19.7 µM (inactive) | 2.75 µM (inactive) | 15.1 µM (inactive) |  | 8.38 µM (inactive) |  |  | 23 µM (inactive) | 12 µM (inactive) |  | 2.92 µM (inactive) | 15 | 13.3 µM (inactive) | 18.7 µM (inactive) | 
7 | O=C(O)/C(=C/c1ccccc1[N+](=O)[O-])c1ccccc1 | > 100 µM (inactive) | > 100 µM (inactive) |  | > 100 µM (inactive) | > 100 µM (inactive) | > 100 µM (inactive) | > 100 µM (inactive) | > 100 µM (inactive) |  | > 100 µM (inactive) |  | > 100 µM (inactive) |  | > 100 µM (inactive) |  |  | > 100 | > 100 µM (inactive) | > 100 µM (inactive) | 
8 | O=C(Nc1cccc2nsnc12)c1cc2c(cc1Cl)Sc1nccn1S2(=O)=O |  | 54.5 µM (inactive) | 15.1 µM (inactive) | 13.6 µM (inactive) | 3.31 µM (inactive) | 11.5 µM (inactive) | 8.43 µM (inactive) | 1.78 µM (inactive) | 8.26 µM (inactive) | 1.68 µM (inactive) | 4.6 µM (inactive) | 2.73 µM (inactive) | 4.4 µM (inactive) | 3.38 µM (inactive) | 1.9 µM (inactive) | 3.28 µM (inactive) | 5.19 | 15.9 µM (inactive) | 18 µM (inactive) | 14.1 µM (inactive)
9 | Cc1c(Cl)cccc1NC(=O)c1cccc([N+](=O)[O-])c1O | 16.3 µM (inactive) | 25.6 µM (inactive) |  | 14.2 µM (inactive) | 9.79 µM (inactive) | 5.83 µM (inactive) | 5.78 µM (inactive) | 9.29 µM (inactive) |  | 5.71 µM (inactive) | 4.29 µM (inactive) | 22.3 µM (inactive) | 2.37 µM (inactive) | 7.18 µM (inactive) |  | 4.2 µM (inactive) | 14.4 | 20.5 µM (inactive) | 14.1 µM (inactive) | 
10 | N#CCc1ccc(/C(C#N)=C2/OC(=N)C(c3ccc(CC#N)cc3)C2=O)cc1 (configuration not stated) | > 100 µM (inactive) | > 100 µM (inactive) |  | > 100 µM (inactive) | > 100 µM (inactive) | > 100 µM (inactive) | > 100 µM (inactive) | > 100 µM (inactive) |  | > 100 µM (inactive) | > 100 µM (inactive) |  | > 100 µM (inactive) |  |  | > 100 µM (inactive) | > 100 | > 100 µM (inactive) | > 100 µM (inactive) | 
11 | O=C1NC(=O)C(F)(n2cc(F)c(=O)[nH]c2=O)C(O)N1 (configuration not stated) |  | > 10 µM (inactive) | > 10 µM (inactive) | > 10 µM (inactive) | > 10 µM (inactive) | > 10 µM (inactive) | > 10 µM (inactive) | > 10 µM (inactive) | > 10 µM (inactive) | > 10 µM (inactive) | > 10 µM (inactive) | > 10 µM (inactive) | > 10 µM (inactive) | > 10 µM (inactive) | > 10 µM (inactive) | > 10 µM (inactive) | > 10 | > 10 µM (inactive) | > 10 µM (inactive) | > 10 µM (inactive)
12 | CCOC(=O)Nc1cc2nnc(-c3ccccc3)nc2c(N)n1 | 31.4 µM (inactive) | 2.45 µM (inactive) |  |  | 14.9 µM (inactive) | 13.9 µM (inactive) | 14.7 µM (inactive) | 17.3 µM (inactive) |  | 6.43 µM (inactive) | 18 µM (inactive) | 23.9 µM (inactive) | 13 µM (inactive) | 15.8 µM (inactive) |  | 32.1 µM (inactive) | 6.46 | 10.4 µM (inactive) | 2.73 µM (inactive) | 
13 | Nc1nc(SCC(=O)c2ccccc2)nc2nc3c(c(-c4ccccc4)c12)CCCC3 |  | 4.71 µM (inactive) | 40.9 µM (inactive) | 19.8 µM (inactive) | 23.4 µM (inactive) | > 10 µM (inactive) | 24.8 µM (inactive) | 41.9 µM (inactive) | 19.1 µM (inactive) | 22.5 µM (inactive) | 17.7 µM (inactive) | > 100 µM (inactive) | > 10 µM (inactive) | 33 µM (inactive) | > 10 µM (inactive) | 74.8 µM (inactive) | > 100 | 20.6 µM (inactive) | > 10 µM (inactive) | 31.9 µM (inactive)
14 | CC(C)CC(NC(O)[BH2-][N+](C)(C)C)C(=O)NC(Cc1ccccc1)C(=O)N[C@H]1c2ccsc2/C(=N/O)[C@H]1O (some centres not stated) |  | > 100 µM (inactive) | > 100 µM (inactive) | > 100 µM (inactive) | > 100 µM (inactive) | > 100 µM (inactive) | > 100 µM (inactive) | > 100 µM (inactive) | > 100 µM (inactive) | > 100 µM (inactive) | > 100 µM (inactive) | > 100 µM (inactive) | > 100 µM (inactive) | > 100 µM (inactive) | > 100 µM (inactive) | > 100 µM (inactive) | > 100 | > 100 µM (inactive) | > 100 µM (inactive) | > 100 µM (inactive)
15 | CCP(C)(C)=O | > 100 µM (inactive) | > 100 µM (inactive) |  | > 100 µM (inactive) | > 100 µM (inactive) | > 100 µM (inactive) | > 100 µM (inactive) | > 100 µM (inactive) |  | > 100 µM (inactive) | > 100 µM (inactive) |  |  | > 100 µM (inactive) |  | > 100 µM (inactive) | > 100 | > 100 µM (inactive) | > 100 µM (inactive) | 
16 | COc1cc(OC)cc(-c2cc(O)c3cc4c(cc3n2)OCO4)c1 | 0.152 µM (active) | 0.27 µM (active) |  |  | 17.1 µM (inactive) | 0.389 µM (active) | 0.367 µM (active) | 0.486 µM (active) |  | 0.136 µM (active) |  | 0.199 µM (active) | 0.314 µM (active) | 0.225 µM (active) |  | 0.206 µM (active) | 0.263 | 0.348 µM (active) | 0.192 µM (active) | 
17 | CCCCCCCCCc1cc(=O)c2c(O)cccc2o1 | 31.2 µM (inactive) | > 100 µM (inactive) |  |  | 50.7 µM (inactive) | 79.6 µM (inactive) | 22.8 µM (inactive) | > 100 µM (inactive) |  | 75.9 µM (inactive) | 53 µM (inactive) | 37.4 µM (inactive) | 57.5 µM (inactive) | 65 µM (inactive) |  | 30.8 µM (inactive) | 41.3 | 51.4 µM (inactive) | > 100 µM (inactive) | 
